Data from ChEMBL document CHEMBL1201862, “PubChem BioAssay data set” (2004).
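Interpolation was linear, between the two tested concentrations surrounding the appropriate level; five concentrations were tested over 48 hours in 96-well plates. GI50 = concentration required for 50% inhibition of growth.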 Calls of active or inactive are those of the source. Cut-off read from the data, not from the text of the source: active = GI50 up to about 1.1 µM and inactive = higher.

Columns and labels:
Test in all cases: NCI tumour cell line growth inhibition, 48 h
U-251 = tested on: U-251
A498 = tested on: A498
786-0 = tested on: 786-0
ACHN = tested on: ACHN
SNB-19 = tested on: SNB-19
UO-31 = tested on: UO-31
A549 = tested on: A549
CAKI-1 = tested on: CAKI-1
DU-145 = tested on: DU-145
MDA-N = tested on: MDA-N
KM12 = tested on: KM12
T47D = tested on: T47D
UACC-257 = tested on: UACC-257
COLO 205 = tested on: COLO 205
OVCAR-8 = tested on: OVCAR-8
HOP-62 = tested on: HOP-62
HOP-92 = tested on: HOP-92
OVCAR-4 = tested on: OVCAR-4
NCI-H23 = tested on: NCI-H23
RXF 393 = tested on: RXF 393

Measured: GI50

O=C1OC(=O)C2CCCC3CCCC1C32 (stereo not given)
inactive: U-251 > 100 µM | A498 > 100 µM | 786-0 > 100 µM | ACHN > 100 µM | SNB-19 > 100 µM | UO-31 > 100 µM | A549 > 100 µM | CAKI-1 > 100 µM | DU-145 > 100 µM | MDA-N > 100 µM | KM12 > 100 µM | T47D > 100 µM | UACC-257 > 100 µM | COLO 205 > 100 µM | OVCAR-8 > 100 µM | HOP-62 > 100 µM | HOP-92 > 100 µM | OVCAR-4 > 100 µM | NCI-H23 > 100 µM | RXF 393 > 100 µM
